The term IC50 denotes the point on the concentration scale where inhibition reaches its midpoint. Lower therefore signals inhibition by little substance.

R132H mutant IDH1 enzyme, sequence (O75874 whole entry R132H): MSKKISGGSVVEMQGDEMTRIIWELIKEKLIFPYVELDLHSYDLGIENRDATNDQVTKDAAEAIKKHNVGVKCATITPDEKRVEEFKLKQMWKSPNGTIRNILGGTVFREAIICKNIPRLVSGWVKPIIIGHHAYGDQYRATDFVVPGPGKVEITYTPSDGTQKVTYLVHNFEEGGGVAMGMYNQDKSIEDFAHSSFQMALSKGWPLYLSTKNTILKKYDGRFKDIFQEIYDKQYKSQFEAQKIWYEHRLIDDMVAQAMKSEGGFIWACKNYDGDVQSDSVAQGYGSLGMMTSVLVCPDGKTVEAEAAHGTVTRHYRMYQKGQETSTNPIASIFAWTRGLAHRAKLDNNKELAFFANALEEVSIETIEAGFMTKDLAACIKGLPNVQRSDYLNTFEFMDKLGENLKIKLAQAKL

The test concerns the target R132H mutant IDH1 enzyme (Homo sapiens (Human), UniProt O75874, R132H). In words: R132H IDH1 Enzymatic Assay. It is filed as biochemical. The settings on record: R132H mutant IDH1 enzyme 1.5 nM final; luminescence (Kinase-GLO) readout. How it is done: R132H IDH1 Enzymatic Assay
Luminescence is measured using a PerkinElmer Envision plate reader.
In the case of `COC1CC2CCC(C1)C2C(=O)N1Cc2cccnc2Nc2ccc(N3CCOCC3)cc21` (centres unmarked) [Example 1, 6-{[(3r,8r)-3-Methoxybicyclo[3.2.1]oct-8-yl]carbonyl}-8-morpholin-4-yl-6,11-dihydro-5H-pyrido[2,3-b][1,5]benzodiazepine], the IC50 came to 1050 nM. As to `COC1CC2CCC(C1)C2C(=O)N1Cc2cccnc2Nc2ccc(N3CCOCC3)cc21` (centres unmarked) [Example 2, 6-{[(3s,8s)-3-methoxybicyclo[3.2.1]oct-8-yl]carbonyl}-8-morpholin-4-yl-6,11-dihydro-5H-pyrido[2,3-b][1,5]benzodiazepine], the IC50 worked out at 226 nM. Consider `CC(C)[C@@H]1COC(=O)N1c1ccc2c(c1)N(C(=O)[C@]13C[C@H]4C[C@H](C[C@H](C4)C1)C3)Cc1cccnc1N2` [Example 119, (4R)-4-(1-Methylethyl)-3-{6-[(3S,5S,7S)-tricyclo[3.3.1.1˜3,7˜]dec-1-ylcarbonyl]-6,11-dihydro-5H-pyrido[2,3-b][1,5]benzodiazepin-8-yl}-1,3-oxazolidin-2-one], for which inhibition was half-maximal at 22 nM (IC50). `O=C(C1C[C@H]2COC[C@@H](C1)N2CC(F)(F)F)N1Cc2cccnc2Nc2ccc(N3C[C@H]4CC[C@@H]3CO4)cc21` (stereo partly drawn) [Example 129, (8-((1R,4R)-2-Oxa-5-azabicyclo[2.2.2]octan-5-yl)-5,11-dihydro-6H-benzo[b]pyrido[2,3-e][1,4]diazepin-6-yl)((1R,5S)-9-(2,2,2-trifluoroethyl)-3-oxa-9-azabicyclo[3.3.1]nonan-7-yl)methanone] had an IC50 of 6 nM.

`O=C(C1C[C@H]2COC[C@@H](C1)N2CC(F)(F)F)N1Cc2cccnc2Nc2ccc(N3C[C@@H]4CC[C@H]3CO4)cc21` (stereo partly drawn) [Example 130, (8-((1 S,4S)-2-oxa-5-azabicyclo[2.2.2]octan-5-yl)-5,11-dihydro-6H-benzo[b]pyrido[2,3-e][1,4]diazepin-6-yl)((1R,5S)-9-(2,2,2-trifluoroethyl)-3-oxa-9-azabicyclo[3.3.1]nonan-7-yl)methanone] had an IC50 of 5 nM.

These data come from patent publication US10508108B2, “Tricyclic compounds as inhibitors of mutant IDH enzymes” (Merck Sharp & Dohme Corp., priority 2014, dated 2019).
